In ChEMBL document CHEMBL2074330, “Identification of glutathione as a driving force and leukotriene C4 as a substrate for oatp1, the hepatic sinusoidal organic solute transporter” (J Biol Chem, 1998):

Tests used:
[1] = target: T1, Solute carrier organic anion transporter family member 1A1 (Rattus norvegicus, UniProt P46720); experiment: TP_TRANSPORTER: inhibition of LTC4 uptake (LTC4: 0.01uM, Ouabain: 500 uM) in Xenopus laevis oocytes; format: functional, cell-based, Oocyte; parameters: scale not given: the % may be the effect or the level left; conditions: probe LTC4, read-out: Activity
T1 sequence (P46720 whole entry): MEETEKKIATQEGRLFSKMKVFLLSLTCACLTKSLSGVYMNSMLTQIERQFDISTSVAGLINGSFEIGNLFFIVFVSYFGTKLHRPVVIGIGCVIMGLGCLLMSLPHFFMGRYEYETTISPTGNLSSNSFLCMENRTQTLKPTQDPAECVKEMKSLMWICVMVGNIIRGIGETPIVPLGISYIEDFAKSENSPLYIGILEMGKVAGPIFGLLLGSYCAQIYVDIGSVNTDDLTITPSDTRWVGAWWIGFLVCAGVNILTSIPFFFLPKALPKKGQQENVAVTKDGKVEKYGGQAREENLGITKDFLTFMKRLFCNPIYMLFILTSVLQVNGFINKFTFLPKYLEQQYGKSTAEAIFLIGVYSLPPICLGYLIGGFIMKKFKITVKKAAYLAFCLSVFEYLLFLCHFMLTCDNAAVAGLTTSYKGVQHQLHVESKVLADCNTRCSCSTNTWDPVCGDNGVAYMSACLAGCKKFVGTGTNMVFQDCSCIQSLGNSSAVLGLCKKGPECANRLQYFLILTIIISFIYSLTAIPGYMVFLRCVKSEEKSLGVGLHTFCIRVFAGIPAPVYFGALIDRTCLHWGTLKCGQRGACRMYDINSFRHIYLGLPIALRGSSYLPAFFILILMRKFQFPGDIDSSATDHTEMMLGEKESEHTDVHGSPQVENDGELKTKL

[2] = target: T1, Solute carrier organic anion transporter family member 1A1; experiment: TP_TRANSPORTER: inhibition of DNP-SG uptake (DNP-SG: 50 uM, Ouabain: 500 uM) in Xenopus laevis oocytes; format: functional, cell-based, Oocyte; parameters: scale not given: the % may be the effect or the level left; conditions: probe DNP-SG, read-out: Activity
[3] = target: T1, Solute carrier organic anion transporter family member 1A1; experiment: TP_TRANSPORTER: inhibition of LTC4 uptake (LTC4: 0.01uM, Bilirubin ditaurate: 500 uM) in Xenopus laevis oocytes; format: functional, cell-based, Oocyte; parameters: scale not given: the % may be the effect or the level left; conditions: probe LTC4, read-out: Activity
[4] = target: T1, Solute carrier organic anion transporter family member 1A1; experiment: TP_TRANSPORTER: inhibition of DNP-SG uptake (DNP-SG: 50 uM, Bilirubin ditaurate: 500 uM) in Xenopus laevis oocytes; format: functional, cell-based, Oocyte; parameters: scale not given: the % may be the effect or the level left; conditions: probe DNP-SG, read-out: Activity
[5] = target: T1, Solute carrier organic anion transporter family member 1A1; experiment: TP_TRANSPORTER: inhibition of LTC4 uptake (LTC4: 0.01uM, BSP: 250 uM) in Xenopus laevis oocytes; format: functional, cell-based, Oocyte; parameters: scale not given: the % may be the effect or the level left; conditions: probe LTC4, read-out: Activity
[6] = target: T1, Solute carrier organic anion transporter family member 1A1; experiment: TP_TRANSPORTER: inhibition of DNP-SG uptake (DNP-SG: 50 uM, BSP: 250 uM) in Xenopus laevis oocytes; format: functional, cell-based; parameters: scale not given: the % may be the effect or the level left; conditions: oocyte
[7] = target: T1, Solute carrier organic anion transporter family member 1A1; experiment: TP_TRANSPORTER: inhibition of LTC4 uptake (LTC4: 0.01uM, DNP-SG: 1000 uM) in Xenopus laevis oocytes; format: functional, cell-based; parameters: scale not given: the % may be the effect or the level left; conditions: oocyte
[8] = target: T1, Solute carrier organic anion transporter family member 1A1; experiment: TP_TRANSPORTER: inhibition of LTC4 uptake (LTC4: 0.01uM, p-Chlorophenacyl-SG: 1000 uM) in Xenopus laevis oocytes; format: functional, cell-based, Oocyte; parameters: scale not given: the % may be the effect or the level left; conditions: probe LTC4, read-out: Activity
[9] = target: T1, Solute carrier organic anion transporter family member 1A1; experiment: TP_TRANSPORTER: inhibition of DNP-SG uptake (DNP-SG: 50 uM, p-Chlorophenacyl-SG: 1000 uM) in Xenopus laevis oocytes; format: functional, cell-based, Oocyte; parameters: scale not given: the % may be the effect or the level left; conditions: probe DNP-SG, read-out: Activity
[10] = target: T1, Solute carrier organic anion transporter family member 1A1; experiment: TP_TRANSPORTER: inhibition of LTC4 uptake (LTC4: 0.01uM, DIDS: 250 uM) in Xenopus laevis oocytes; format: functional, cell-based, Oocyte; parameters: scale not given: the % may be the effect or the level left; conditions: probe LTC4, read-out: Activity
[11] = target: T1, Solute carrier organic anion transporter family member 1A1; experiment: TP_TRANSPORTER: inhibition of DNP-SG uptake (DNP-SG: 50 uM, DIDS: 250 uM) in Xenopus laevis oocytes; format: functional, cell-based, Oocyte; parameters: scale not given: the % may be the effect or the level left; conditions: probe DNP-SG, read-out: Activity
[12] = substrate: CCCCC/C=C\C\C=C/C=C/C=C/[C@@H](SC[C@@H](NC(=O)CC[C@H](N)C(=O)O)C(=O)NCC(=O)O)[C@@H](O)CCCC(=O)O; experiment: (§1) TP_TRANSPORTER: uptake in Xenopus laevis oocytes; format: functional, cell-based, Oocyte
[13] = substrate: N[C@@H](CCC(=O)N[C@H](CSc1ccc([N+](=O)[O-])cc1[N+](=O)[O-])C(=O)NCC(=O)O)C(=O)O; experiment: as §1; format: functional, cell-based, Oocyte

## C[C@@H]1O[C@@H](O[C@H]2C[C@@H](O)[C@]3(CO)[C@H]4[C@H](O)C[C@]5(C)[C@@H](C6=CC(=O)OC6)CC[C@]5(O)[C@@H]4CC[C@]3(O)C2)[C@H](O)[C@H](O)[C@H]1O [OUABAIN]
[1]
  activity at 500 µM: 52%
[2]
  activity at 500 µM: 61%

## C=CC1=C(C)/C(=C/c2[nH]c(Cc3[nH]c(/C=C4\NC(=O)C(C)=C4C=C)c(C)c3CCC(=O)NCCS(=O)(=O)O)c(CCC(=O)NCCS(=O)(=O)O)c2C)NC1=O [BILIRUBIN DITAURATE]
[3]
  activity at 500 µM: 4%
[4]
  activity at 500 µM: 6%

## O=C1OC(c2ccc(O)c(S(=O)(=O)[O-])c2)(c2ccc(O)c(S(=O)(=O)[O-])c2)c2c(Br)c(Br)c(Br)c(Br)c21.[Na+].[Na+] [SULFOBROMOPHTHALEIN SODIUM]
[5]
  activity at 250 µM: < 2%
[6]
  Activity: < 2%

## N[C@@H](CCC(=O)N[C@H](CSc1ccc([N+](=O)[O-])cc1[N+](=O)[O-])C(=O)NCC(=O)O)C(=O)O
[7]
  Activity: 15%

## NC(CCC(=O)N[C@@H](CSCC(=O)c1ccc(Cl)cc1)C(=O)NCC(=O)O)C(=O)O (stereo partly drawn)
[8]
  activity at 1000 µM: 23%
[9]
  activity at 1000 µM: 31%

## O=S(=O)(O)c1cc(N=C=S)ccc1/C=C/c1ccc(NC=S)cc1S(=O)(=O)O
[10]
  activity at 250 µM: 25%
[11]
  activity at 250 µM: 39%

B1: Solute carrier organic anion transporter family member 1A1 (Rattus norvegicus) (protein)
chain: MEETEKKIATQEGRLFSKMKVFLLSLTCACLTKSLSGVYMNSMLTQIERQFDISTSVAGLINGSFEIGNLFFIVFVSYFGTKLHRPVVIGIGCVIMGLGCLLMSLPHFFMGRYEYETTISPTGNLSSNSFLCMENRTQTLKPTQDPAECVKEMKSLMWICVMVGNIIRGIGETPIVPLGISYIEDFAKSENSPLYIGILEMGKVAGPIFGLLLGSYCAQIYVDIGSVNTDDLTITPSDTRWVGAWWIGFLVCAGVNILTSIPFFFLPKALPKKGQQENVAVTKDGKVEKYGGQAREENLGITKDFLTFMKRLFCNPIYMLFILTSVLQVNGFINKFTFLPKYLEQQYGKSTAEAIFLIGVYSLPPICLGYLIGGFIMKKFKITVKKAAYLAFCLSVFEYLLFLCHFMLTCDNAAVAGLTTSYKGVQHQLHVESKVLADCNTRCSCSTNTWDPVCGDNGVAYMSACLAGCKKFVGTGTNMVFQDCSCIQSLGNSSAVLGLCKKGPECANRLQYFLILTIIISFIYSLTAIPGYMVFLRCVKSEEKSLGVGLHTFCIRVFAGIPAPVYFGALIDRTCLHWGTLKCGQRGACRMYDINSFRHIYLGLPIALRGSSYLPAFFILILMRKFQFPGDIDSSATDHTEMMLGEKESEHTDVHGSPQVENDGELKTKL
[12]
  Km: 0.27 µM
[13]
  Km: 408 µM
